From patent US20250205286A1, “COMPOSITIONS, REAGENTS, AND METHODS FOR TREATING PITT-HOPKINS SYNDROME” (Vitro Biopharma, Inc., priority 2022, published 2025)

System: Hsp70 secretion from UC-MSCs
Assay: Hsp70 secretion from cultured UC-MSCs exposed to LiCl (immunoassay)
Assay type: cell-based, human
Conditions: 200 micromolar LiCl; medium collected 96 hours later; p<0.05
Description: FIG. 7 is a graph showing the secretion of heat shock protein 70 (Hsp70) from cultured UC-MSCs (e.g., ALLORX STEM CELLS®) and the effects of increasing concentrations of lithium chloride (LiCl) on Hsp70 secretion.
UC-MSCs were plated at 5,000 cells/cm^2 in T-25 flasks and cultured until confluence was 80-90%. The cells were then exposed to the LiCl concentrations shown on the x axis and the medium was collected 96 hours later and assayed by immunoassay for Hsp70. […] Since Hsp70 mediates cellular protection as a chaperone molecule and through antiapoptotic mechanisms (refs), its enhanced secretion from MSCs (possible through inclusion in exosomes Ref) may reflect mechanisms of stem cell activation by GSK-3p inhibition in conjunction with HDAC inhibition (e.g., see U.S. application Ser. No. 17/239,513 which is incorporated by reference). This effect is a possible mode of action of the therapy proposed by the present disclosure.

[Cl-].[Li+] [LiCl, lithium chloride]
secretion of Hsp70: significant increased secretion
